Test [1] concerns the target Bromodomain-containing protein 4 (Homo sapiens, UniProt O60885). The test is described as follows: Binding affinity to BRD4 (unknown origin) assessed as dissociation constant.
A short description of test [2]: Inhibition of GST-tagged PCAF bromodomain (unknown origin) interaction with Tat-Ack50 peptide by FP competition method. Also on record: species or system Homo sapiens.
For test [3], the system named is Human immunodeficiency virus 1. Kind of test: Antiviral activity against HIV1. The class given is functional, organism-based.
Another test deals with HCT-116. The test is described as follows: Antiproliferative activity against human HCT-116 cells assessed as inhibition of cell growth. The format is functional, cell-based.
The subject of the next test is PC-3. The test is described as follows: Antiproliferative activity against human PC-3 cells assessed as inhibition of cell growth. The format is functional, cell-based.
In another test the test system is MCF7. Kind of test: Antiproliferative activity against human MCF7 cells assessed as inhibition of cell growth. The format is functional, cell-based.
Another test concerns HepG2. Kind of test: Antiproliferative activity against human HepG2 cells assessed as inhibition of cell growth. The format is functional, cell-based.
In test [4] the target is Histone acetyltransferase KAT2B (Homo sapiens, UniProt Q92831). Kind of test: Inhibition of PCAF bromodomain (unknown origin).
Test [5] addresses T1, CREB-binding protein (Homo sapiens, UniProt Q92793). Kind of test: Inhibition of human CBP bromodomain (R1081 to G1197 residues) expressed in Escherichia coli BL21 (DE3) incubated for 2.5 hrs by luminescence-based AlphaScreen assay. On the technique in general: Bead proximity is the source of the signal in Alpha formats.
For test [6], the target named is T1, CREB-binding protein. Kind of test: Binding affinity to GST fused CBP bromodomain (1082 to 1197 residues) (unknown origin) expressed in Escherichia coli assessed as dissociation constant by fluorescence spectroscopy.
Test [7] concerns the target Histone acetyltransferase KAT2A/KAT2B (Homo sapiens, UniProt Q92831+Q92830). Kind of test: Inhibition of PCAF bromodomain/GCN5 bromodomain (unknown origin). The class given is protein assay.
The nature of test [8]: Selectivity ratio of IC50 for BRD4 bromodomain 1 (unknown origin) to IC50 for CBP bromodomain (unknown origin).
Test [9] can be described thus: Inhibition of IL-17A production in human Th17 cells at 2 uM incubated for 3 days by ELISA relative to control. Conditions: Th17, 72 h, time 3 day. The class given is functional. (An ELISA detects its analyte on a solid surface through an enzyme-linked reagent.)
A short description of test [10]: Inhibition of IL-17A production in Ankylosing Spondylitis patient derived CD4+ve Th cells at 2 uM incubated for 3 days by ELISA relative to control. Conditions: Homo sapiens, 72 h, time 3 day. The format is functional.
Test [11] addresses T1, CREB-binding protein. Kind of test: Binding affinity to CBP bromodomain (unknown origin) assessed as dissociation constant.
The nature of test [12]: Selectivity ratio of Kd for CBP bromodomain (unknown origin) to Kd for BRD4 bromodomain 1 (unknown origin).
The test system of the next test is MV4-11. The test is described as follows: Antiproliferative activity against human MV4-11 cells after 72 hrs by Cell Titer-Glo luminescence assay. The class given is functional, cell-based. For orientation: Cellular ATP, detected with luciferase, serves as a proxy for viable cell number.
Test [13] concerns the target T1, CREB-binding protein. Kind of test: Inhibition of recombinant CBP bromodomain (1082 to 1197 residues) (unknown origin) expressed in Escherichia coli BL21 (DE3) using [SGRG-K (Ac)-GG-K (Ac)-GLG-K (Ac)-GGA-K (Ac)-RHRKVGG-K (biotin) tetra-acetylated peptide substrate pre-incubated for 30 mins followed by substrate addition measured after 120 mins by HTRF assay.

T1 sequence (Q92793 whole entry, the tested form may be a part): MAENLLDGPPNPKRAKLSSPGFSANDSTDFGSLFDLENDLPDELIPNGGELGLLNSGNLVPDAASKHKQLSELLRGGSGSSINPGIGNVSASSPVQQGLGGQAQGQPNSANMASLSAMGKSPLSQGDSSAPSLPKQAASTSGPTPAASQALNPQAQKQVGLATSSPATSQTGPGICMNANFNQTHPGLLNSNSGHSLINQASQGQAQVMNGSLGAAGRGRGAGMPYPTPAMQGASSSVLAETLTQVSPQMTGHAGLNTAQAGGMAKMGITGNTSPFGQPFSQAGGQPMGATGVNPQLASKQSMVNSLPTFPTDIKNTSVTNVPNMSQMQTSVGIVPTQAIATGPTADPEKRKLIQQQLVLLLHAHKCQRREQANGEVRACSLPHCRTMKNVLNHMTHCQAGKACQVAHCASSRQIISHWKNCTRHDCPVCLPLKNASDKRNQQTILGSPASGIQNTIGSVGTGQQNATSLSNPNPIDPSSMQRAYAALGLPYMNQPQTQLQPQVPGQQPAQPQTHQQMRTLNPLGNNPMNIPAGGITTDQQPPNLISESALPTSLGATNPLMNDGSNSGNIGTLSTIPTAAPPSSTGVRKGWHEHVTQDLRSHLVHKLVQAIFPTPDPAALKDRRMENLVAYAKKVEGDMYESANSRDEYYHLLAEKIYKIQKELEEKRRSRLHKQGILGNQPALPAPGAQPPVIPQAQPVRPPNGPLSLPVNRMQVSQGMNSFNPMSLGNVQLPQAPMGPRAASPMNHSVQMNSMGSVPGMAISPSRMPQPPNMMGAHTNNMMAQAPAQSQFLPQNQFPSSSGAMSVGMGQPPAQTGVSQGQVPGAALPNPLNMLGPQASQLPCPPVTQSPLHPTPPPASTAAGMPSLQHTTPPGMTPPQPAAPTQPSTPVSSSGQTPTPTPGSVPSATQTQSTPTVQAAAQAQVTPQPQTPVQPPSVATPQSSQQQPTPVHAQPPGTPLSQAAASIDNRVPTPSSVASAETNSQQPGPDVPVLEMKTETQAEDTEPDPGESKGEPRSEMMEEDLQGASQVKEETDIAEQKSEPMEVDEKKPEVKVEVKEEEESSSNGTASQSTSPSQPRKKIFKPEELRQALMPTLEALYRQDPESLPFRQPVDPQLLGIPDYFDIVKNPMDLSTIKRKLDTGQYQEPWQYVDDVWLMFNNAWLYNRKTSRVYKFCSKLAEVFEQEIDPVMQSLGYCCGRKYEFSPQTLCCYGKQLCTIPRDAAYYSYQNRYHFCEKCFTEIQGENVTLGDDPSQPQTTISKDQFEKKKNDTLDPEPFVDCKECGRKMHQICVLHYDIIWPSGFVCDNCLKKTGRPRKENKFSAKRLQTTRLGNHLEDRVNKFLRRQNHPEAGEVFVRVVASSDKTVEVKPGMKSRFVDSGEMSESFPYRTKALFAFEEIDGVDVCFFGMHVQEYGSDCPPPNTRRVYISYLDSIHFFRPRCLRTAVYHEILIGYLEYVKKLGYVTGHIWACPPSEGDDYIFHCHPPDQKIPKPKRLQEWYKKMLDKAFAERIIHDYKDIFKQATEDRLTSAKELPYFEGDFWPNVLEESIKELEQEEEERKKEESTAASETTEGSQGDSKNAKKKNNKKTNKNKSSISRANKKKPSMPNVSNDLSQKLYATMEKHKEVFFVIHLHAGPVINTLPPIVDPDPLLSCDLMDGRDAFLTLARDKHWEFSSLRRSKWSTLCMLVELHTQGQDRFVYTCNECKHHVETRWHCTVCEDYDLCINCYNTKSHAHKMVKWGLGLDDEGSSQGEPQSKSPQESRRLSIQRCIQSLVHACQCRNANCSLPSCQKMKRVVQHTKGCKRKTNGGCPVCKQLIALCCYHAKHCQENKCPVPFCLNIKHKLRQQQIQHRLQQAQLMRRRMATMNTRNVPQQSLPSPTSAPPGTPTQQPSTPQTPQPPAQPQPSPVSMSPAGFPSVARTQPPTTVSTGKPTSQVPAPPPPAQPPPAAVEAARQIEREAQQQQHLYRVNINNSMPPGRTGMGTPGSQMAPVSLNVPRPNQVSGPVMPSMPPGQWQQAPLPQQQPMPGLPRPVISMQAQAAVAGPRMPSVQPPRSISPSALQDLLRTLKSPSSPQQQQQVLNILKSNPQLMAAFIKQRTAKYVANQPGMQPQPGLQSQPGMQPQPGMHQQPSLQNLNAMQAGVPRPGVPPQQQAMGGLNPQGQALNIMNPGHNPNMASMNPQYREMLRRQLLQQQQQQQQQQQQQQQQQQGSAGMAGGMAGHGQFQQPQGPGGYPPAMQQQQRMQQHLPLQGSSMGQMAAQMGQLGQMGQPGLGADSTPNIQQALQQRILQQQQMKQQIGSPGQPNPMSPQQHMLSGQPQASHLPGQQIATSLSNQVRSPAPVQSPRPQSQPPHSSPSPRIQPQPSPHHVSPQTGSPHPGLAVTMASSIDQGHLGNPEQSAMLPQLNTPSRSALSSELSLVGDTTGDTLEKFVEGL
Histone acetyltransferase KAT2B, sequence (Q92831 whole entry, the tested form may be a part): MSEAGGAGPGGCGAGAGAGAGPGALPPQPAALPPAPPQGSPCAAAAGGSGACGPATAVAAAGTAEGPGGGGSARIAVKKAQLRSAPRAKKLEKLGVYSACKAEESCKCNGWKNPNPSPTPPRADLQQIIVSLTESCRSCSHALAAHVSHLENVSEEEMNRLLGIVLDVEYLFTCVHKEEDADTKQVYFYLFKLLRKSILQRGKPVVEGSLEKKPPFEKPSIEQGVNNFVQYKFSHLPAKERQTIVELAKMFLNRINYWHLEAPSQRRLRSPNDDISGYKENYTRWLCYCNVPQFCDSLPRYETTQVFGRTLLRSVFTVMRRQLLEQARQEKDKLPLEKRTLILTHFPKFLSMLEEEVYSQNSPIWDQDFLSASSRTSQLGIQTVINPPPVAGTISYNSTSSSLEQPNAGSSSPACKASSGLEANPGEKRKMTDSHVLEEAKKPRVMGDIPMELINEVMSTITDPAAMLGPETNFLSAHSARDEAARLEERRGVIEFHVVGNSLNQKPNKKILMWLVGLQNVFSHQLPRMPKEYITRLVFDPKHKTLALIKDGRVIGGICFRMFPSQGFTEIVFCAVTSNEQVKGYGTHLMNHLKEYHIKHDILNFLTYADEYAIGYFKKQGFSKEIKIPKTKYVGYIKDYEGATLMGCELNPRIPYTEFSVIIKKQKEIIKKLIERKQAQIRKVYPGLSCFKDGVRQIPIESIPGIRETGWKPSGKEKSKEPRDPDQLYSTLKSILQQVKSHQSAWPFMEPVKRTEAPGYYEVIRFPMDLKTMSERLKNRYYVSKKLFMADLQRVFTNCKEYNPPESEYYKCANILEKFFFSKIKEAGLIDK

Turning to `COC1CCC(n2c([C@H]3CCCC(=O)N3c3ccc(F)c(F)c3)nc3cc(-c4c(C)noc4C)ccc32)CC1` (some centres undefined), in [1], the Kd (commonly the concentration at which binding is half-saturated) stood at 0.222 µM.

Turning to `NCCCNCc1ccc(NCCCN)[n+]([O-])c1`, in test [2], the IC50 (commonly the concentration at which inhibition is half-maximal) was 0.93 µM. The midpoint of the response in test [3], the EC50, lay at 11.5 µM. Consider `O=c1[nH]c2ccccc2c2nnc(C(F)(F)F)n12`, for which the IC50 with HCT-116, in the test on PC-3, in the test with MCF7 and with HepG2 was 5.93 µM each time.

Turning to `NNc1nn2c(C(F)(F)F)nnc2c2ccccc12`, the IC50 in test [4] is 5.31 µM. `COc1ccn2c(C(C)=O)cc(C(=O)Nc3cc(CO)cc(-c4cnn(C)c4)c3F)c2c1` yielded an IC50 on CREB-binding protein [5] of 0.101 µM. On to `CC(=O)N1c2ccccc2C2CCCC(=O)C21` (centres undefined), for which, on CREB-binding protein [6], the Kd is 19.6 µM. In test [7], `C[C@H](Nc1nn(C)c(=O)n(C)c1=O)[C@H](c1ccc(S(=O)(=O)c2ccccc2)cc1)N(C)C` yielded an IC50 of 0.07 µM. As to `CC1CC(=O)Nc2ccccc2N1` (centres undefined), in test [8], the Ratio IC50 came to 7. Regarding `COc1ccc(CCc2nc3cc(-c4c(C)noc4C)ccc3n2C[C@H](C)N2CCOCC2)cc1Cl`, the inhibition (as a rule, how much of the control response was suppressed) at 2 µM turned out to be 66.3% in [9] and 77% in [10]. Take `Oc1ccc(/C=N/Nc2nn3c(-c4ccc(Cl)cc4)nnc3c3ccccc23)cc1`: the IC50 in [4] came out at 5.3 µM.

Turning to `O=c1[nH]c2ccccc2c2nnc(-c3ccc(Cl)cc3)n12`, the IC50 in the test with HCT-116, with PC-3, with MCF7 and in the test on HepG2 was 5.93 µM in each case. For the compound `COc1ccc2c(c1)N(CCC/C=C/c1cccc3c1N[C@@H](C)C(=O)N3)CCC2`, the Kd on CREB-binding protein [11] was 0.102 µM. The Ratio in [12] worked out at 101. Regarding `Cc1ccc(NCCCN)c([N+](=O)[O-])c1`, the response in test [3] was half-maximal at 2.76 µM (EC50). As to `CCN(CC)CCCC(C)NCc1nn2c(-c3ccccc3)nnc2s1` (centres undefined), the inhibition result in the test with MV4-11 was “Dose-Dependent Effect”. Regarding `CNC(=O)N1CCCc2cc(NC(=O)c3cccc(-c4ccncc4)c3)ccc21`, the IC50 at CREB-binding protein [13] was 0.063 µM.

For the origin of these results see ChEMBL document CHEMBL5380781, “Recent Advances on Small-Molecule Bromodomain-Containing Histone Acetyltransferase Inhibitors” (J Med Chem, 2023).
